# Measured values: patent US20140377216A1, “ANTICANCER FUSION PROTEIN” (ADAMED SP. Z.O.O., priority 2011, published 2014)
# Where “and” joins values, the source holds several entries; their conditions need not be identical. Equal values may be shown once.
# Columns and labels:
# human liver cancer HepG2 = test: Liver cancer model, Experiment A: HepG2 xenograft; type: in vivo, Crl:SHO-PrkdcscidHrhr mice; conditions: 20 mg/kg i.p.
# Procedure: (§1) Tumor size was measured using electronic calliper, tumor volume was calculated using the formula: (a^2×b)/2, where a=shorter diagonal of the tumor (mm) and b=longer diagonal of the tumor (mm). Inhibition of tumor growth was calculated using the formula:
# (§2) TGI[%](Tumor growth inhibition)=(WT/WC)×100−100%
# (§3) wherein WT is the average tumor volume in the treatment group, and WC is the average tumor volume in the control group.
# On day 0 Crl:SHO-Prkdc^scidHr^hr mice were grafted subcutaneously (s.c.) in the right flank region with 7×10^6 of HepG2 cells suspended in 0.1 ml of the 3:1 mixture HBSS buffer:Matrigel using syringe with a 0.5×25 mm needle (Bogmark). When tumors reached the size of 64-529 mm^3 (day 25), mice were randomized to obtain the average size of tumors in the group of −230 mm^3 and assigned to treatment groups. The treatment groups were administered with the preparations of fusion protein of the invention of Ex. 16^b (80 mg/kg) and rhTRAIL114-281 (50 mg/kg) as a comparison and reference compound 5-FU (5-Fluorouracil, Sigma-Aldrich) (20 mg/kg). The preparations were administered intravenously (i.v.) six times every second day, 5-FU was applied intraperitoneally (i.p.). The control group received formulation buffer.
# When the therapeutic group reached the average tumor size of ˜1000 mm^3, mice were sacrificed by cervical dislocation.
# [1] = test system: human liver cancer PLC/PRF/5; test: Liver cancer model, Experiment B: PLC/PRF/5 xenograft; type: in vivo, Crl:SHO-PrkdcscidHrhr mice; conditions: 30 mg/kg i.p., schedule (q1dx5)×2, 43th day
# Procedure: as §1, §2, §3
# On day 0 Crl:SHO-Prkdc^scidHr^hr mice were grafted subcutaneously (s.c.) in the right flank region with 7×10^6 of PLC/PRF/5 cells suspended in 0.1 ml of the 3:1 mixture HBSS buffer:Matrigel using syringe with a 0.5×25 mm needle (Bogmark). When tumors reached the size of 72-536 mm^3 (day 29), mice were randomized to obtain the average size of tumors in the group of ˜205 mm^3 and assigned to treatment groups. The treatment groups were administered with the preparations of fusion protein of the invention of Ex. 16^b (50 mg/kg) and rhTRAIL114-281 (50 mg/kg) as a comparison and reference compound 5-FU (5-Fluorouracil, Sigma-Aldrich) (30 mg/kg). The preparations were administered intravenously (i.v.) six times every second day, except 5-FU, which was applied intraperitoneally (i.p.) in the schedule (q1dx5)×2. The control group received formulation buffer.
# When an experimental group reached the average tumor size of ˜1000 mm^3, mice were sacrificed by cervical dislocation.
# [2] = test system: pancreatic carcinoma MIA PaCa-2; test: Pancreas cancer model, Experiment B: MIA PaCa-2 xenograft; type: in vivo, Crl:SHO-PrkdcscidHrhr mice; conditions: 50 mg/kg i.p. six times every second day, 61th day
# Procedure: as §1, §2, §3
# On day 0 Crl:SHO-Prkdc^scidHr^hr mice were grafted subcutaneously (s.c.) in the right flank region with 5×10^6 of MIA PaCa-2 cells suspended in 0.1 ml of 3:1 mixture HBSS buffer:Matrigel using syringe with a 0.5×25 mm needle (Bogmark). When tumors reached the size of 60-398 mm^3 (day 20), mice were randomized to obtain the average size of tumors in the group of ˜170 mm^3 and assigned to treatment groups. The treatment groups were administered with the preparations of fusion protein of the invention of Ex. 16^b (50 mg/kg) and rhTRAIL114-281 (50 mg/kg) as a comparison and reference compound gemcytabine (Gemzar, Eli Lilly) (50 mg/kg). The preparations were administered intravenously (i.v.) six times every second day, gemcytabine was applied intraperitoneally (i.p.) in the same schedule. The control group received formulation buffer.
# When a therapeutic group reached the average tumor size of ˜1000 mm^3, mice were sacrificed by the cervical dislocation.
# COLO 205 = test: MTT cytotoxicity test on COLO 205; type: cell-based, human; conditions: continuous incubation over 72 h
# Caki-1 = test: MTT cytotoxicity test on Caki-1; type: cell-based, human; conditions: continuous incubation over 72 h
# HT 144 = test: MTT cytotoxicity test on HT 144; type: cell-based, human; conditions: continuous incubation over 72 h
# SW 620 = test: MTT cytotoxicity test on SW 620; type: cell-based, human; conditions: continuous incubation over 72 h
# MDA-MB-231 = test: MTT cytotoxicity test on MDA-MB-231; type: cell-based, human; conditions: continuous incubation over 72 h
# SK-MES-1 = test: MTT cytotoxicity test on SK-MES-1; type: cell-based, human; conditions: continuous incubation over 72 h
# HUV-EC-C = test: MTT cytotoxicity test on HUV-EC-C (healthy control cells); type: cell-based, human; conditions: continuous incubation over 72 h
# Text: (§4) MTT assay is a colorimetric assay used to measure proliferation, viability and cytotoxicity of cells. It consists in decomposition of a yellow tetrazolium salt MTT (4,5-dimethyl-2-thiazolyl)-2,5-diphenyltetrazolium bromide) to the water-insoluble purple dye formazan by mitochondrial enzyme succinate-tetrazolium reductase 1. MTT reduction occurs only in living cells. Data analysis consists in determining IC50 concentration of the protein (in ng/ml), at which the 50% reduction in the number of cells occurs in the population treated compared to control cells. Results were analyzed using GraphPad Prism 5.0 software. The test was performed according to the literature descriptions (Celis, J E, (1998). Cell Biology, a Laboratory Handbook, second edition, Academic Press, San Diego; Yang, Y., Koh, L W, Tsai, J H., (2004); Involvement of viral and chemical factors with oral cancer in Taiwan, Jpn J Clin Oncol, 34 (4), 176-183).
# Cell culture medium was diluted to a defined density (10^4-10^5 cells per 100 μl). Then 100 μl of appropriately diluted cell suspension was applied to a 96-well plate in triplicates. […] After stirring, the absorbance was measured at 570 nm (reference filter 690 nm). […]
# SK-OV-3 = test: MTT cytotoxicity test on SK-OV-3; type: cell-based, human; conditions: continuous incubation over 72 h
# PANC-1 = test: MTT cytotoxicity test on PANC-1; type: cell-based, human; conditions: continuous incubation over 72 h
# 293 = test: MTT cytotoxicity test on 293; type: cell-based, human; conditions: continuous incubation over 72 h
# MES-SA/Mx2 = test: MTT cytotoxicity test on MES-SA/Mx2; type: cell-based, human; conditions: continuous incubation over 72 h
# MCF10A = test: MTT cytotoxicity test on MCF10A; type: cell-based; conditions: continuous incubation over 72 h
# SK-HEP-1 = test: MTT cytotoxicity test on SK-HEP-1; type: cell-based, human; conditions: continuous incubation over 72 h
# Panc03.27 = test: MTT cytotoxicity test on Panc03.27; type: cell-based, human; conditions: continuous incubation over 72 h
# HCT116 = test: MTT cytotoxicity test on HCT116; type: cell-based, human; conditions: continuous incubation over 72 h
# BxPC3 = test: MTT cytotoxicity test on BxPC3; type: cell-based, human; conditions: continuous incubation over 72 h
# PLC/PRF/5 = test: MTT cytotoxicity test on PLC/PRF/5; type: cell-based, human; conditions: continuous incubation over 72 h
# A549 = test: MTT cytotoxicity test on A549; type: cell-based, human; conditions: continuous incubation over 72 h
# UM-UC-3 = test: MTT cytotoxicity test on UM-UC-3; type: cell-based, human; conditions: continuous incubation over 72 h
# HepG2 = test: MTT cytotoxicity test on HepG2; type: cell-based, human; conditions: continuous incubation over 72 h
# NCI-H460 = test: MTT cytotoxicity test on NCI-H460; type: cell-based, human; conditions: continuous incubation over 72 h
# MES-SA/Dx5 = test: MTT cytotoxicity test on MES-SA/Dx5; type: cell-based, human; conditions: continuous incubation over 72 h
# JURKAT A3 = test: Cytotoxicity test on JURKAT A3 (nonadherent cells); type: cell-based, human; conditions: continuous incubation over 72 h, test MTT
# Text: as §4
# Cell culture medium was diluted to a defined density (10^4-10^5 cells per 100 μl). […] After stirring, the absorbance was measured at 570 nm (reference filter 690 nm).
# EZ4U (Biomedica) test was used for testing cytotoxic activity of the proteins in nonadherent cell lines. […] On this basis IC50 values were determined (as an average of two independent experiments) using the GraphPad Prism 5 software. […]
# MES-SA = test: MTT cytotoxicity test on MES-SA; type: cell-based, human; conditions: continuous incubation over 72 h
# MCF-7 = test: MTT cytotoxicity test on MCF-7; type: cell-based, human; conditions: continuous incubation over 72 h
# A498 = test: MTT cytotoxicity test on A498; type: cell-based, human; conditions: continuous incubation over 72 h
# OV-CAR-3 = test: MTT cytotoxicity test on OV-CAR-3; type: cell-based, human; conditions: continuous incubation over 72 h
# MDA-MB-435S = test: MTT cytotoxicity test on MDA-MB-435S; type: cell-based, human; conditions: continuous incubation over 72 h
# HT-1080 = test: MTT cytotoxicity test on HT-1080; type: cell-based, human; conditions: continuous incubation over 72 h
# LNCaP = test: MTT cytotoxicity test on LNCaP; type: cell-based, human; conditions: continuous incubation over 72 h
molecule,measurement,setting,value
"O=c1[nH]cc(F)c(=O)[nH]1 [5-FU, 5-Fluorouracil]",efficacy against HepG2 tumors,human liver cancer HepG2,didn't show any efficacy
same,TGI (tumor growth inhibition) relative to the control,[1],32.2%
Nc1ccn([C@@H]2O[C@H](CO)[C@@H](O)C2(F)F)c(=O)n1 [gemcytabine],TGI (tumor growth inhibition) relative to the control,[2],42.6%
rhTRAIL95-281: TRAIL comparator protein as labelled in cytotoxicity Tables 4-4d (hTRAIL fragment 95-281),IC50,COLO 205,0.05902 µg/mL
same,IC50,Caki-1,0.01342 µg/mL
same,IC50,HT 144; listed as TRAIL 95-281,1.134 µg/mL
same,IC50,HT 144; listed as rhTRAIL 95-281,1.73 µg/mL
same,IC50,SW 620,>2 µg/mL
same,IC50,MDA-MB-231,>2 µg/mL
same,IC50,SK-MES-1,0.03935 µg/mL
same,IC50,SK-MES-1; listed as TRAIL 95-281,0.1007 µg/mL
same,IC50,HUV-EC-C,>2 µg/mL
same,IC50,SK-OV-3,>2 µg/mL
same,IC50,PANC-1,>10 µg/mL
same,IC50,PANC-1; listed as TRAIL 95-281,>2 µg/mL
same,IC50,293,>10 µg/mL
same,IC50,MES-SA/Mx2,0.03895 µg/mL
same,IC50,MCF10A,>10 µg/mL
same,IC50,MCF10A; listed as TRAIL 95-281,>2 µg/mL
same,IC50,SK-HEP-1,>2 µg/mL
same,IC50,Panc03.27,0.315 µg/mL
same,IC50,HCT116,7.557 µg/mL
same,IC50,HCT116; listed as TRAIL 95-281,>2 µg/mL
same,IC50,BxPC3,0.06471 µg/mL and 0.0606 µg/mL
same,IC50,PLC/PRF/5,>9 µg/mL
same,IC50,PLC/PRF/5; listed as TRAIL 95-281,>2 µg/mL
same,IC50,A549,>10 µg/mL
same,IC50,A549; listed as TRAIL 95-281,>2 µg/mL
same,IC50,UM-UC-3,2.242 µg/mL
same,IC50,HepG2; listed as TRAIL 95-281,>2 µg/mL
same,IC50,HepG2; listed as rhTRAIL 95-281,>10 µg/mL
same,IC50,NCI-H460,5.889 µg/mL
same,IC50,NCI-H460; listed as TRAIL 95-281,0.438 µg/mL
same,IC50,MES-SA/Dx5,0.02915 µg/mL
same,IC50,MES-SA/Dx5; listed as TRAIL 95-281,0.02759 µg/mL
same,IC50,JURKAT A3,>10 µg/mL
same,IC50,MES-SA,>10 µg/mL
same,IC50,MES-SA; listed as TRAIL 95-281,>2 µg/mL
same,IC50,MCF-7,>2 µg/mL
same,IC50,A498,1.611 µg/mL
same,IC50,OV-CAR-3; listed as TRAIL 95-281,0.963 µg/mL
same,IC50,OV-CAR-3; listed as rhTRAIL 95-281,0.963 µg/mL
same,IC50,MDA-MB-435S,>2 µg/mL
same,IC50,HT-1080,>2 µg/mL
same,IC50,LNCaP,2.052 µg/mL
